The text below walks through data of patent US7553867B2, “Furan or thiophene derivative and medicinal use thereof” (Takeda Pharmaceutical Company Limited, priority 2002, dated 2009).

Tested on in one data set: not given
Assay: not given
Conditions: not given
The term melting point denotes the temperature of the solid-liquid transition. `Cc1cc(OCc2cc(-c3ccc(F)cc3)oc2C)ccc1CCC(=O)O` [Example 5(8), 3-(4-{[5-(4-Fluorophenyl)-2-methyl-3-furyl]methoxy}-2-methylphenyl)propionic acid]: the melting point fell in the range of 123 to 125 °C.
As to `Cc1cc(OCc2cc(-c3ccc(C(F)(F)F)cc3)oc2C(C)C)ccc1CCC(=O)O` [Example 5(10), 3-[4-({2-Isopropyl-5-[4-(trifluoromethyl)phenyl]-3-furyl}methoxy)-2-methylphenyl]propionic acid], the melting point lay in the range of 108 to 109 °C.
`CCCCc1oc(-c2ccc(C(F)(F)F)cc2)cc1COc1ccc(CCC(=O)O)c(C)c1` [Example 5(11), 3-[4-({2-Butyl-5-[4-(trifluoromethyl)phenyl]-3-furyl}methoxy)-2-methylphenyl]propionic acid] showed a melting point of 118 to 119 °C.
`Cc1oc(-c2ccc(C(F)(F)F)cc2)cc1COc1ccc(OCC(=O)O)cc1` [Example 6(7), [4-({2-Methyl-5-[4-(trifluoromethyl)phenyl]-3-furyl}methoxy)phenoxy]acetic acid] displayed a melting point of 168 to 169 °C.
The compound `Cc1oc(-c2ccc(C(F)(F)F)cc2)cc1COc1cccc(CSC(C)C(=O)O)c1` (stereo not drawn) [Example 9(1), 2-{[3-({2-Methyl-5-[4-(trifluoromethyl)phenyl]-3-furyl}methoxy)-benzyl]thio}propionic acid] came in with a melting point of 82 to 83 °C.
`Cc1oc(-c2ccc(C(F)(F)F)cc2)cc1COc1cccc(CSC2(C(=O)O)CCC2)c1` [Example 9(3), 1-{[3-({2-Methyl-5-[4-(trifluoromethyl)phenyl]-3-furyl}methoxy)benzyl]thio}cyclobutanecarboxylic acid] had a melting point of 121 to 122 °C.
`CCCC(SCc1cccc(OCc2cc(-c3ccc(C(F)(F)F)cc3)oc2C)c1)C(=O)O` (stereo not drawn) [Example 9(4), 2-{[3-({2-Methyl-5-[4-(trifluoromethyl)phenyl]-3-furyl}methoxy)benzyl]thio}pentanoic acid] returned a melting point of 61 to 62 °C.
Compound `Cc1oc(-c2ccc(C(F)(F)F)cc2)cc1CCc1ncc(CC(=O)O)s1` [Example 13(1), [2-(2-{2-Methyl-5-[4-(trifluoromethyl)phenyl]-3-furyl}ethyl)-1,3-thiazol-5-yl]acetic acid] returned a melting point of 143 to 145 °C.
As for `Cc1nc(CCc2cc(-c3ccc(C(F)(F)F)cc3)oc2C)sc1CC(=O)O` [Example 13(2), [4-Methyl-2-(2-{2-methyl-5-[4-(trifluoromethyl)phenyl]-3-furyl}ethyl)-1,3-thiazol-5-yl]acetic acid], the melting point was 168 to 169 °C.
The same measure, in the same setting: for `Cc1oc(-c2ccc(C(F)(F)F)cc2)cc1CCc1nc(C(C)C)c(CC(=O)O)s1` [Example 13(3), [4-Isopropyl-2-(2-{2-methyl-5-[4-(trifluoromethyl)phenyl]-3-furyl}ethyl)-1,3-thiazol-5-yl]acetic acid] the value was 176 to 177 °C; for `Cc1nc(CCCc2cc(-c3ccc(C(F)(F)F)cc3)oc2C)sc1CC(=O)O` [Example 13(4), [4-Methyl-2-(3-{2-methyl-5-[4-(trifluoromethyl)phenyl]-3-furyl}propyl)-1,3-thiazol-5-yl]acetic acid], 162 to 163 °C.
`Cc1oc(-c2ccc(C(F)(F)F)cc2)cc1CCc1ncc(CC(=O)O)o1` [Example 13(5), [2-(2-{2-Methyl-5-[4-(trifluoromethyl)phenyl]-3-furyl}ethyl)-1,3-oxazol-5-yl]acetic acid] displayed a melting point of 143 to 144 °C.
The compound `Cc1nc(CCc2cc(-c3ccc(C(F)(F)F)cc3)oc2C)oc1CC(=O)O` [Example 13(6), [4-Methyl-2-(2-{2-methyl-5-[4-(trifluoromethyl)phenyl]-3-furyl}ethyl)-1,3-oxazol-5-yl]acetic acid] gave a melting point of 120 to 121 °C.
Compound `Cc1oc(-c2ccc(C(F)(F)F)cc2)cc1CCc1nc(C(C)C)c(CC(=O)O)o1` [Example 13(7), [4-Isopropyl-2-(2-{2-methyl-5-[4-(trifluoromethyl)phenyl]-3-furyl}ethyl)-1,3-oxazol-5-yl]acetic acid] came in with a melting point of 126 to 128 °C.
On the same count and under the same terms, for `Cc1cc(-c2ccc(C(F)(F)F)cc2)oc1COc1ccc(CC(C)(C)C(=O)O)cc1` [Example 20(1), 2,2-Dimethyl-3-[4-({3-methyl-5-[4-(trifluoromethyl)phenyl]-2-furyl}methoxy)phenyl]propionic acid] the value was 124 to 126 °C; for `Cc1cc(-c2ccc(C(F)(F)F)cc2)oc1COc1ccc(OC(C)(C)C(=O)O)cc1` [Example 20(2), 2-Methyl-2-[4-({3-methyl-5-[4-(trifluoromethyl)phenyl]-2-furyl}methoxy)phenoxy]propionic acid], 116 to 117 °C.
With `CCOC(=O)C(C)(C)Oc1ccc(/C=C\c2cc(-c3ccc(C(F)(F)F)cc3)oc2C)cc1` [Example 21-b, Ethyl 2-methyl-2-[4-((Z)-2-{2-methyl-5-[4-(trifluoromethyl)phenyl]-3-furyl}ethenyl)phenoxy]propionate], the melting point was 84 to 85 °C.
Same read-out and setting: as for `Cc1oc(-c2ccc(C(F)(F)F)cc2)cc1/C=C/c1ccc(OC(C)(C)C(=O)O)cc1` [Example 22(1), 2-Methyl-2-[4-((E)-2-{2-methyl-5-[4-(trifluoromethyl)phenyl]-3-furyl}ethenyl)phenoxy]propionic acid], the figure is 140 to 141 °C.
In turn, `Cc1oc(-c2ccc(C(F)(F)F)cc2)cc1/C=C\c1ccc(OC(C)(C)C(=O)O)cc1` [Example 22(2), 2-Methyl-2-[4-((Z)-2-{2-methyl-5-[4-(trifluoromethyl)phenyl]-3-furyl}ethenyl)phenoxy]propionic acid] registered a melting point of 117 to 118 °C.

Another data set deals with T1, human GPR40 (Homo sapiens, UniProt O14842).
T1 construct: expressed in transfected cells; host or cells: CHO cell strain (No. 104)
T1 sequence (O14842 whole entry): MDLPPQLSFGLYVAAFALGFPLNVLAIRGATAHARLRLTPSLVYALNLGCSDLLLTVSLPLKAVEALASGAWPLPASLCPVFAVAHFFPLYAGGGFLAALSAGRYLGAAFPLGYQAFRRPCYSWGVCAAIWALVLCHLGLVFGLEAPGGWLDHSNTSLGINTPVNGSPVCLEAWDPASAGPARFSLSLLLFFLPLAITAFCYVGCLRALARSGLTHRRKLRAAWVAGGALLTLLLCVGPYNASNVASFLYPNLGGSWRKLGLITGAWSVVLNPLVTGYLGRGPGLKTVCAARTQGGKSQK
Briefly: Receptor function regulating action (agonist action) for GPR40, intracellular calcium by FLIPR in CHO cells. Format: cell-based. To be noted: CHO cells expressing human GPR40; change of fluorescence intensity at 30 seconds after reaction initiation. The protocol: CHO cell strain (No. 104) which have had expressed human GPR40 was diluted to contain 3×10^4 cells/100 μL, and added to a Black walled 96-well plate (Costar) at 100 μL/well, and incubated overnight in CO2 incubator. Change of intracellular calcium concentration was measured with FLIPR (Molecular Device). The method is as follows. 50 μg of Fluo-3AM (DOJIN) was dissolved in 21 μL of DMSO (DOJIN), and the same amount of 20% pluronic acid (Molecular Probes) was further added thereto, and the mixture was mixed. The mixture was added to 10.6 mL of an assay buffer [prepared by adding 10 mL of solution which was produced by adding 20 mL of 1 M HEPES (pH 7.4) (DOJIN) to 1 L of HBSS (Invitrogen), dissolving 710 mg of probenecid (Sigma) in 5 mL of 1N NaOH, and further adding 5 mL of the above-mentioned HBSS/HEPES solution thereto and mixing it.] containing 105 μL of fetal bovine serum, to give a fluorescent dye solution. The medium of the cell plate was removed, and immediately, the fluorescent dye solution was added at 100 μL/well, and incubated in CO2 incubator for 1 hour, allowing the fluorescent dye to be incorporated into the cells. The cells after incubation were washed with the above-mentioned assay buffer. The compound to be added to the cells was diluted with the assay buffer to each concentration, added to the plate for the test sample. After conducting the above-mentioned pretreatment, intracellular calcium concentration change after adding the compound was measured in FLIPR to investigate the agonist action. By dose-response curve with the change of fluorescence intensity value at 30 seconds after reaction initiation, EC50 value was calculated.
For orientation: A change in cytosolic calcium serves as a functional read-out for many receptors and channels.
As usually defined, the EC50 is the concentration giving half of the maximal effect. For `Cc1cc(OCc2cc(-c3ccc(F)cc3)oc2C)ccc1CCC(=O)O` [Example 5(8), 3-(4-{[5-(4-Fluorophenyl)-2-methyl-3-furyl]methoxy}-2-methylphenyl)propionic acid], the EC50 is 100 nM.
Regarding `Cc1cc(OCc2cc(-c3ccc(C(F)(F)F)cc3)oc2C(C)C)ccc1CCC(=O)O` [Example 5(10), 3-[4-({2-Isopropyl-5-[4-(trifluoromethyl)phenyl]-3-furyl}methoxy)-2-methylphenyl]propionic acid], the EC50 was 870 nM.
For the compound `CCCCc1oc(-c2ccc(C(F)(F)F)cc2)cc1COc1ccc(CCC(=O)O)c(C)c1` [Example 5(11), 3-[4-({2-Butyl-5-[4-(trifluoromethyl)phenyl]-3-furyl}methoxy)-2-methylphenyl]propionic acid], the EC50 amounted to 580 nM.
For the compound `Cc1oc(-c2ccc(C(F)(F)F)cc2)cc1COc1ccc(OCC(=O)O)cc1` [Example 6(7), [4-({2-Methyl-5-[4-(trifluoromethyl)phenyl]-3-furyl}methoxy)phenoxy]acetic acid], the EC50 was 290 nM.
As for `CCCCC/C=C\C/C=C\C/C=C\CCCCC(=O)O` [γ-linolenic acid], the EC50 was 2000 nM.
